Data reported in ChEMBL document CHEMBL1136899, “Synthesis and therapeutic evaluation of pyridyl based novel mTOR inhibitors” (Bioorg Med Chem Lett, 2009).
Active and inactive are the calls of the source. The rule behind the calls is not given here.

Tests used:
PBMC = assay: Inhibition of concanavalin A-induced IFN-gamma production in human PBMC cells; type: functional, cell-based
Plasma [1] = assay: Stability in mouse plasma; type: ADME, cell-free
Plasma [2] = assay: Stability in rat plasma; type: ADME, cell-free
Plasma [3] = assay: Stability in human plasma; type: ADME, cell-free
[4] = Cmax in mouse plasma at 100 mg/kg, ip; type: ADME, organism-based; set-up: dose 100 mg/kg, route intraperitoneal
[5] = Cmax in mouse plasma at 15 mg/kg, ip; type: ADME, organism-based; set-up: dose 15 mg/kg, route intraperitoneal
Mus musculus [6] = assay: Inhibition of dextran sulfate sodium-induced weight loss in mouse at 150 mg/kg, ip administered daily for 10 days by macroscopic analysis; type: functional, organism-based; set-up: dose 150 mg/kg
Mus musculus [7] = assay: Suppression of dextran sulfate sodium-induced colitis in mouse assessed as improved rectal bleeding index at 150 mg/kg, ip administered daily for 10 days by macroscopic analysis; type: functional, organism-based; set-up: dose 150 mg/kg
Mus musculus [8] = assay: Suppression of dextran sulfate sodium-induced colitis in mouse assessed as decrease in disease activity index at 150 mg/kg, ip administered daily for 10 days by macroscopic analysis; type: functional, organism-based; set-up: dose 150 mg/kg
Mus musculus [9] = assay: Reversal of dextran sulfate sodium-induced shortening of colon in mouse at 150 mg/kg, ip administered daily for 10 days by macroscopic analysis; type: functional, organism-based; set-up: dose 150 mg/kg
Mus musculus [10] = assay: Decrease in dextran sulfate sodium-induced edema in mouse at 150 mg/kg, ip administered daily for 10 days by histological analysis; type: functional, organism-based; set-up: dose 150 mg/kg
Mus musculus [11] = assay: Suppression of dextran sulfate sodium-induced colitis in mouse assessed as inhibition of leukocyte infiltration in colonic mucosa at 150 mg/kg, ip administered daily for 10 days by histological analysis; type: functional, organism-based; set-up: dose 150 mg/kg
Mus musculus [12] = assay: Protection against dextran sulfate sodium-induced crypt damage in mouse at 150 mg/kg, ip administered daily for 10 days by histological analysis; type: functional, organism-based; set-up: dose 150 mg/kg
Mus musculus [13] = assay: Blockade of dextran sulfate sodium-induced mTOR activation in mouse at 150 mg/kg, ip administered daily for 10 days by Western blot analysis; type: functional, organism-based; set-up: dose 150 mg/kg

- Stability (Plasma [1]): Stable
- Stability (Plasma [2]): Stable
- Stability (Plasma [3]): Stable
- Cmax [4]: 180 µM
- Cmax [5]: 30 µM
SMILES: CC(Cl)C(=O)Nc1ccc(C#N)nc1 (centres undefined)
- Activity (PBMC): Dose-dependent effect
- inhibition (Mus musculus [6]): Active
- Activity (Mus musculus [7]): Active
- Activity (Mus musculus [8]): Active
- Activity (Mus musculus [9]): Active
- Activity (Mus musculus [10]): Active
- inhibition (Mus musculus [11]): Active
- Activity (Mus musculus [12]): Active
- Activity (Mus musculus [13]): Active
